Data on 18 compounds can be found in ChEMBL document CHEMBL3045218, “Synthesis and Fungicidal Activities of Some 1-Aryloxyaceto-3-(5-aryl-1, 3, 4-oxadiazol-2-yl) thioureas and Corresponding Oxadiazolo [3, 2-a]-s-triazines” (1990).

Broadly, the inhibition is the relative decrease from the control value, in per cent.

Assay type in all cases: functional
Assay [1] has as its system Aspergillus niger. In words: Antifungal activity against Aspergillus niger assessed as fungus colony inhibition at 1000 ppm measured after 96 hr by agar dilution method. In general terms: Agar dilution tests growth on a series of plates holding different concentrations.
In assay [2] the test system is Bipolaris oryzae. In words: Antifungal activity against Bipolaris oryzae assessed as fungus colony inhibition at 1000 ppm measured after 96 hr by agar dilution method.
Assay [3] deals with Bipolaris oryzae. Kind of assay: Antifungal activity against Bipolaris oryzae assessed as fungus colony inhibition at 10 ppm measured after 96 hr by agar dilution method.
In assay [4] the test system is Aspergillus niger. Kind of assay: Antifungal activity against Aspergillus niger assessed as fungus colony inhibition at 100 ppm measured after 96 hr by agar dilution method.
The test system of assay [5] is Aspergillus niger. In words: Antifungal activity against Aspergillus niger assessed as fungus colony inhibition at 10 ppm measured after 96 hr by agar dilution method.
The test system of assay [6] is Bipolaris oryzae. In words: Antifungal activity against Bipolaris oryzae assessed as fungus colony inhibition at 100 ppm measured after 96 hr by agar dilution method.

With `O=[N+]([O-])c1ccccc1OCc1nc(=S)nc2oc(-c3ccccc3)nn12`, the figures for the inhibition at 1000 ppm in the assay on Aspergillus niger [1] and in the assay on Bipolaris oryzae [2] were 70.2% and 74.4%, respectively. Further, the results for the inhibition at 10 ppm in the assay with Bipolaris oryzae [3] and in the assay with Aspergillus niger [5] were 40.2% and 40.3%, respectively. In addition, the values for the inhibition at 100 ppm with Aspergillus niger [4] and with Bipolaris oryzae [6] were 52.2% and 55.4%, respectively.

`O=C(COc1ccc([N+](=O)[O-])cc1)NC(=S)Nc1nnc(-c2ccccc2)o1`: the figures for the inhibition at 1000 ppm in the assay on Aspergillus niger [1] and in the assay on Bipolaris oryzae [2] were 85.2% and 81.2%, respectively. Further, the figures for the inhibition at 10 ppm in the assay with Bipolaris oryzae [3] and with Aspergillus niger [5] were 50.8% and 54.3%, respectively. For the same compound, the inhibition at 100 ppm in the assay with Aspergillus niger [4] was 67.9%; in the assay on Bipolaris oryzae [6] it was 64.7%.

`COc1ccc(-c2nn3c(COc4ccc(C)cc4)nc(=S)nc3o2)cc1`: the inhibition at 1000 ppm in the assay on Aspergillus niger [1] was found to be 62.3%; in the assay on Bipolaris oryzae [2], 60.8%. The inhibition at 10 ppm turned out to be 30.9% in the assay with Bipolaris oryzae [3] and 32.6% in the assay with Aspergillus niger [5]. Besides, the inhibition at 100 ppm in the assay with Aspergillus niger [4] was 42.7%; in the assay with Bipolaris oryzae [6], 40.5%.

Consider `Cc1cccc(OCc2nc(=S)nc3oc(-c4ccccc4)nn23)c1`, for which the inhibition at 1000 ppm in the assay with Aspergillus niger [1] was found to be 76.2%; in the assay with Bipolaris oryzae [2], 72.5%. For the same compound, the inhibition at 10 ppm in the assay on Bipolaris oryzae [3] amounted to 36.7%; with Aspergillus niger [5], 41.5%. The inhibition at 100 ppm in the assay on Aspergillus niger [4] was found to be 57.3%; in the assay on Bipolaris oryzae [6], 53.2%.

In the case of `COc1ccc(-c2nnc(NC(=S)NC(=O)COc3ccc([N+](=O)[O-])cc3)o2)cc1`, the values for the inhibition at 1000 ppm with Aspergillus niger [1] and in the assay on Bipolaris oryzae [2] were 78.7% and 75.2%, respectively. Besides, the inhibition at 10 ppm with Bipolaris oryzae [3] is 47.4%; in the assay on Aspergillus niger [5], 50.2%. For the same compound, the values for the inhibition at 100 ppm in the assay with Aspergillus niger [4] and in the assay on Bipolaris oryzae [6] were 64.1% and 61.6%, respectively.

In the case of `COc1ccc(-c2nnc(NC(=S)NC(=O)COc3ccc(C)cc3)o2)cc1`, the inhibition at 1000 ppm in the assay on Aspergillus niger [1] came out at 76.3%; in the assay on Bipolaris oryzae [2], 75.3%. Moreover, the inhibition at 10 ppm came out at 38.5% with Bipolaris oryzae [3] and 39.2% in the assay on Aspergillus niger [5]. In addition, the values for the inhibition at 100 ppm in the assay on Aspergillus niger [4] and with Bipolaris oryzae [6] were 56.9% and 55.6%, respectively.

On to `O=C(COc1ccccc1[N+](=O)[O-])NC(=S)Nc1nnc(-c2ccccc2)o1`, for which the inhibition at 1000 ppm is 85.6% in the assay with Aspergillus niger [1] and 80.2% in the assay with Bipolaris oryzae [2]. Besides, the inhibition at 10 ppm in the assay on Bipolaris oryzae [3] is 51.6%; with Aspergillus niger [5] it was 54.8%. For the same compound, the inhibition at 100 ppm in the assay on Aspergillus niger [4] amounted to 68.4%; in the assay with Bipolaris oryzae [6], 65.4%.

With `COc1ccc(-c2nnc(NC(=S)NC(=O)COc3cc(C)ccc3C(C)C)o2)cc1`, the results for the inhibition at 1000 ppm in the assay on Aspergillus niger [1] and in the assay on Bipolaris oryzae [2] were 72.4% and 70.8%, respectively. The inhibition at 10 ppm was 40.2% with Bipolaris oryzae [3] and 46.3% in the assay on Aspergillus niger [5]. The inhibition at 100 ppm in the assay with Aspergillus niger [4] worked out at 61.6%; in the assay on Bipolaris oryzae [6] it was 50.9%.

With `COc1ccc(-c2nn3c(COc4cc(C)ccc4C(C)C)nc(=S)nc3o2)cc1`, the inhibition at 1000 ppm was determined as 82.5% with Aspergillus niger [1] and 80.2% with Bipolaris oryzae [2]. In addition, the inhibition at 10 ppm was determined as 52.3% in the assay with Bipolaris oryzae [3] and 52.6% in the assay on Aspergillus niger [5]. In addition, the results for the inhibition at 100 ppm with Aspergillus niger [4] and with Bipolaris oryzae [6] were 66.4% and 64.8%, respectively.

Consider `COc1ccc(-c2nnc(NC(=S)NC(=O)COc3cccc(C)c3)o2)cc1`, for which the inhibition at 1000 ppm in the assay on Aspergillus niger [1] turned out to be 77.2%; in the assay with Bipolaris oryzae [2] it was 75.6%. In addition, the inhibition at 10 ppm with Bipolaris oryzae [3] was found to be 40.5%; in the assay on Aspergillus niger [5], 39.4%. For the same compound, the results for the inhibition at 100 ppm in the assay on Aspergillus niger [4] and with Bipolaris oryzae [6] were 55.3% and 56.4%, respectively.

For the compound `Cc1ccc(OCC(=O)NC(=S)Nc2nnc(-c3ccccc3)o2)cc1`, the results for the inhibition at 1000 ppm with Aspergillus niger [1] and with Bipolaris oryzae [2] were 72.2% and 70.1%, respectively. The inhibition at 10 ppm with Bipolaris oryzae [3] was found to be 37.2%; in the assay on Aspergillus niger [5], 35.8%. For the same compound, the values for the inhibition at 100 ppm in the assay on Aspergillus niger [4] and in the assay on Bipolaris oryzae [6] were 52.6% and 50.8%, respectively.

With `COc1ccc(-c2nn3c(COc4cccc(C)c4)nc(=S)nc3o2)cc1`, the inhibition at 1000 ppm came out at 62.5% in the assay with Aspergillus niger [1] and 60.3% in the assay with Bipolaris oryzae [2]. The inhibition at 10 ppm with Bipolaris oryzae [3] was 30.4%; in the assay on Aspergillus niger [5] it was 32%. Besides, the inhibition at 100 ppm with Aspergillus niger [4] is 42.3%; with Bipolaris oryzae [6], 40.2%.

As to `Cc1ccc(OCc2nc(=S)nc3oc(-c4ccccc4)nn23)cc1`, the inhibition at 1000 ppm in the assay with Aspergillus niger [1] came out at 75.3%; in the assay with Bipolaris oryzae [2] it was 72.6%. Besides, the inhibition at 10 ppm in the assay with Bipolaris oryzae [3] was determined as 40.3%; in the assay on Aspergillus niger [5] it was 40.9%. Also, the results for the inhibition at 100 ppm in the assay on Aspergillus niger [4] and with Bipolaris oryzae [6] were 56.7% and 52.5%, respectively.

As to `Cc1ccc(C(C)C)c(OCC(=O)NC(=S)Nc2nnc(-c3ccccc3)o2)c1`, the inhibition at 1000 ppm in the assay on Aspergillus niger [1] is 69.3%; in the assay on Bipolaris oryzae [2], 66.6%. In addition, the inhibition at 10 ppm in the assay with Bipolaris oryzae [3] was 31.8%; in the assay on Aspergillus niger [5], 33.7%. For the same compound, the inhibition at 100 ppm was 48.2% in the assay with Aspergillus niger [4] and 45.3% in the assay on Bipolaris oryzae [6].

As for `O=[N+]([O-])c1ccc(OCc2nc(=S)nc3oc(-c4ccccc4)nn23)cc1`, the inhibition at 1000 ppm in the assay with Aspergillus niger [1] came to 71.2%; in the assay with Bipolaris oryzae [2] it was 73.4%. Moreover, the figures for the inhibition at 10 ppm in the assay with Bipolaris oryzae [3] and in the assay with Aspergillus niger [5] were 41.5% and 40.7%, respectively. In addition, the inhibition at 100 ppm in the assay with Aspergillus niger [4] came out at 53.3%; in the assay with Bipolaris oryzae [6], 56.2%.

Turning to `COc1ccc(-c2nn3c(COc4ccc([N+](=O)[O-])cc4)nc(=S)nc3o2)cc1`, the figures for the inhibition at 1000 ppm with Aspergillus niger [1] and in the assay on Bipolaris oryzae [2] were 75.8% and 77.9%, respectively. In addition, the values for the inhibition at 10 ppm in the assay with Bipolaris oryzae [3] and with Aspergillus niger [5] were 48.5% and 41.5%, respectively. Besides, the inhibition at 100 ppm is 58.5% in the assay on Aspergillus niger [4] and 60.5% in the assay with Bipolaris oryzae [6].

Regarding `Cc1cccc(OCC(=O)NC(=S)Nc2nnc(-c3ccccc3)o2)c1`, the inhibition at 1000 ppm turned out to be 71.3% with Aspergillus niger [1] and 69.8% in the assay on Bipolaris oryzae [2]. For the same compound, the inhibition at 10 ppm in the assay on Bipolaris oryzae [3] is 36.6%; with Aspergillus niger [5], 34.7%. The results for the inhibition at 100 ppm with Aspergillus niger [4] and in the assay with Bipolaris oryzae [6] were 50.2% and 50.4%, respectively.

On to `Cc1ccc(C(C)C)c(OCc2nc(=S)nc3oc(-c4ccccc4)nn23)c1`, for which the inhibition at 1000 ppm in the assay with Aspergillus niger [1] is 78.6%; with Bipolaris oryzae [2], 74.8%. The inhibition at 10 ppm in the assay with Bipolaris oryzae [3] was 48.6%; in the assay with Aspergillus niger [5], 48.2%. Besides, the figures for the inhibition at 100 ppm in the assay with Aspergillus niger [4] and in the assay with Bipolaris oryzae [6] were 62.1% and 60.4%, respectively.
